# According to patent publication US20250026746A1, “ENHANCERS OF PARTICULATE GUANYLYL CYCLASE RECEPTOR A” (Mayo Foundation for Medical Education and Research, priority 2021, published 2025):
# Where a name gives a salt, the structure may show the parent alone.
# Key:
# [1] = target: T1, human GC-A (Homo sapiens, UniProt P16066); assay: EC50 and Emax cGMP determination, HTRF, human GC-A overexpressing HEK293 cells; format: cell-based; conditions: for Emax: HEK293, HEK293 GC-A cells, read-out: EMax cGMP activities; for Emax / EMax cGMP activities: 100% = saturating ANP (10 nM), 0% = EC20 ANP; for EC50: EC20 ANP, read-out: EC50 cGMP activities
# T1 construct: host or cells: HEK293
# T1 sequence (P16066 33-1061): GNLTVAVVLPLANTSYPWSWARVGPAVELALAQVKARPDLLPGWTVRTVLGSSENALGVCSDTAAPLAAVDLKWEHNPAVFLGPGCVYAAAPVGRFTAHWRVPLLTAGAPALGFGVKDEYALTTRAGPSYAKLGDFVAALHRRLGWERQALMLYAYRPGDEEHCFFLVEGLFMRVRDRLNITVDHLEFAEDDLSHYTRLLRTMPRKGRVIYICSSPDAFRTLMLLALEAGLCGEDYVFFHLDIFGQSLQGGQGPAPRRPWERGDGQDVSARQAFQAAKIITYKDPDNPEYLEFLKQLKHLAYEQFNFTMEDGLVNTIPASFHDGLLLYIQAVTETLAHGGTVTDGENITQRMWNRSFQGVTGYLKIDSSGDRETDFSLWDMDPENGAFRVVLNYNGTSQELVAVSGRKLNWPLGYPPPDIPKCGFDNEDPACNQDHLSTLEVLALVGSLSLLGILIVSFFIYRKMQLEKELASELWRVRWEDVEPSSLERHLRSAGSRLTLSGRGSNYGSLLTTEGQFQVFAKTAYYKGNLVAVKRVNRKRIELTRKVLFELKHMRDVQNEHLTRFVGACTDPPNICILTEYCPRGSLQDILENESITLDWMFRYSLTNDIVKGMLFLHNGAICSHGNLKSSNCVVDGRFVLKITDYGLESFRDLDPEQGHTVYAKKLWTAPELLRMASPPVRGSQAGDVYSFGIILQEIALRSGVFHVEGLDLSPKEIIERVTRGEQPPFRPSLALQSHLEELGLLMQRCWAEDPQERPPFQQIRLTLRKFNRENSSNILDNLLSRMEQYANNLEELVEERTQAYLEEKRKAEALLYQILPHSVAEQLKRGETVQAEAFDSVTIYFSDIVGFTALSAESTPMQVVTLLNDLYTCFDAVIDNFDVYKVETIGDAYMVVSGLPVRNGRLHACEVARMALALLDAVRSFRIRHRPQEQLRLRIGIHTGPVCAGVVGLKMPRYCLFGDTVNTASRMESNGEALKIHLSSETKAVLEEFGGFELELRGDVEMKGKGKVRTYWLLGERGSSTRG
# T1 sequence (P01160 124-151 partner limits assumed): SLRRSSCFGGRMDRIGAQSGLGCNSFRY
# Method: Test compounds were evaluated for potentiation of cGMP in human GC-A overexpressing HEK293 cells (Cardiorenal Research Laboratory, Mayo Clinic). Test compounds at 10 mM DMSO stock concentration were dispensed into 384 well small volume white plates using Tecan D300e digital dispenser starting at 5 μM or 40 μM concentration and diluted 2-fold for 10-point concentration response. Wells were backfilled with DMSO such that the final concentration of DMSO in all wells was maintained at 0.3% DMSO. Atrial natriuretic peptide (ANP, Phoenix Pharmaceuticals) ANP was prepared as working stock aliquots at 5 μM in phosphate-buffered solution (PBS) with 0.1% bovine serum albumin (BSA) and diluted to […] in buffer plus Tween20 at 0.3% and added to plates to a final concentration equivalent to EC20 ANP in the cGMP assay. GC-A cells in suspension ([…]) in OptiMem media (ThermoFisher 11058-021) supplemented with 2% fetal bovine serum were plated at 1×10^6 cells/mL and assay plates were spun at 1000 rpm for 30 sec and incubated at room temperature for 30 min. GC-A-mediated activation of cGMP production was measured using cGMP CisBio detection homogenous time-resolved florescence (HTRF) competition assay using labeled-cGMP in human GC-A-overexpressing HEK293 cells. 5 μL of d-2 acceptor was dispensed into each well followed by addition of 5 μL of Anti-cGMP Eu-Cryptate antibody donor and plates were spun at 1000 rpm for 30 sec and incubated in the dark at room temperature for 1 hr. HTRF florescence was read on the ClarioStar microplate reader (BMG). A 100% response was determined from wells in the absence of compound and presence of saturating concentration of ANP (10 nM), and 0) % response was determined from wells containing an EC20 concentration of ANP determined for each new lot of ANP. Concentration-response curves for test compounds were analyzed by […] analysis using GraphPad software to determine EC50 and Emax values.
# [2] = target: T2, extracellular domain human GC-A recombinant protein (Homo sapiens, UniProt P16066); assay: Surface plasmon resonance binding to GC-A receptor; conditions: acetate salt; for Kd: SPR 25° C., 1:1 Langmuir model
# T2 construct: extracellular domain human GC-A recombinant protein; purchased My BioSource, Inc. San Diego, CA
# T2 sequence (P16066 33-473 limits assumed): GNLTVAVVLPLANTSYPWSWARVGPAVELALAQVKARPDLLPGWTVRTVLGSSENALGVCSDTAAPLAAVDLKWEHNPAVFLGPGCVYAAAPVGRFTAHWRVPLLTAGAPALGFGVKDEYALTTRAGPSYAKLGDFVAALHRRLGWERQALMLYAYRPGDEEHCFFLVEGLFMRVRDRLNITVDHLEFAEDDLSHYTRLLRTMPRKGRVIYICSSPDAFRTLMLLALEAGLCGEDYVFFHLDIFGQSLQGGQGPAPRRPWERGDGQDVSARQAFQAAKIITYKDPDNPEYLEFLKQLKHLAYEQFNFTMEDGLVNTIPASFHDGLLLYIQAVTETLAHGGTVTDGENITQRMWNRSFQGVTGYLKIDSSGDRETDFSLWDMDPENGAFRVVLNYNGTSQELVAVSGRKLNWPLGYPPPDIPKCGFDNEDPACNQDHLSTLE
# Method: Surface plasmon resonance (SPR) measurements were performed at 25° C. on a BI-4500 SPR instrument (Biosensing Instrument Inc. Tempe AZ). As per the instructions by the Biosensing instrument manual, 400 mM nickel sulfate in deionized water was linked to the Ni-NTA sensor chip (Biosensing Instrument Inc. Tempe AZ. Then 30 μg/ml of extracellular domain human GC-A recombinant protein (My BioSource, Inc. San Diego, CA), containing 12 histidine residues on the C-terminus, was then immobilized to the nickel sulfate on the Ni-NTA sensor chip. After, the chip was washed with buffer (150 mM NaCl, 50 μM EDTA pH 7.4, 0).1% DMSO), then 100 μL of sequentially diluted Compound 3 acetate salt (0.125, 0.25, 0.5, 1, 2 μM), Compound 1 acetate salt (6.25, 12.5, 25, 50, 100 nM) or Compound 2 acetate salt (0.125, 0.25, 0.5, 1, 2 μM) was injected at the rate of 60 ul/min and allowed to dissociate for 60 seconds. Data was collected as sensorgrams. Binding kinetics were derived from sensorgrams using BI-Data Analysis Program (Biosensing Instrument, Tempe AZ). Affinity analysis of GC-A with Compound 3, Compound 2 and/or Compound 1 interactions were performed using a 1:1 Langmuir binding model. Two series were performed for all studies.
# [3] = test system: Primary Human cardiomyocytes; assay: cGMP levels (ELISA) in human cardiomyocytes; format: cell-based; conditions: acetate salt, 1 or 10 μM, ANP (10^-10 M), vs vehicle
# Method: Primary Human cardiomyocytes (HCMs: Catalog No. 6200, Lot No. 6288, PromoCell) were maintained and subcultured according to the manufacturer's protocols. Passage 5 was used in the study. Treatment buffer, Compound 3, Compound 1 and Compound 2 acetate salt, ANP, and vehicle were prepared as described above. Briefly, 5×10^5 of cells/well were grown in 6-well plates until 80 to 90% confluency and were then pretreated with vehicle or Compound 3, Compound 1 or Compound 2 at doses of 1 or 10 μM for 5 min at 37° C., then cells were treated with ANP (10^-10 M) for an additional 10 min at 37° C. Afterward, all cells were washed with PBS once and lysed with 0.1 M HCl at room temperature, and intracellular cGMP levels were measured in the lysate using a commercial cGMP ELISA kit (Enzo Life Sciences) with the acetylation method as instructed by the manufacturer.
Emax [1],EC50 ([1]; HEK293 GC-A cells),Kd [2],potency in potentiating ANP-mediated cGMP generation (comparison between forms/enantiomers) ([1]; HEK293 GC-A cells),EMax cGMP activities ([1]; HEK293 GC-A cells),binding for the GC-A receptor compared with Compound 3 and Compound 2 acetate salts ([2]; SPR),Structure (SMILES),cGMP generation in HCMs in the presence of ANP [3]
95.8%,570 nM,–,–,–,–,"CN(C)CCN1CCCC(C(=O)Nc2nc3c(F)cc(F)cc3s2)C1 (racemic) [Compound 3 TFA salt, N-(4,6-difluorobenzo[d]thiazol-2-yl)-1-(2-(dimethylamino)ethyl) piperidine-3-carboxamide]",–
–,320 nM,176 nM,more potent,84.0%,–,"CN(C)CCN1CCCC(C(=O)Nc2nc3c(F)cc(F)cc3s2)C1 (racemic) [Compound 3 acetate salt, N-(4,6-difluoro-1,3-benzothiazol-2-yl)-1-[2-(dimethylamino)ethyl]piperidine-3-carboxamide]",dose dependent increase
–,160 nM,–,–,75.3%,–,"CN(C)CCN1CCC[C@H](C(=O)Nc2nc3c(F)cc(F)cc3s2)C1 [Compound 1 TFA salt, (S)-N-(4,6-difluorobenzo[d]thiazol-2-yl)-1-(2-(dimethylamino)ethyl) piperidine-3-carboxamide]",–
81.5%,150 nM,12 nM,–,–,greater binding,"CN(C)CCN1CCC[C@H](C(=O)Nc2nc3c(F)cc(F)cc3s2)C1 [Compound 1 acetate salt, (S)-N-(4,6-difluoro-1,3-benzothiazol-2-yl)-1-[2-(dimethylamino)ethyl]piperidine-3-carboxamide]",–
82.7%,730 nM,–,–,–,–,"CN(C)CCN1CCC[C@@H](C(=O)Nc2nc3c(F)cc(F)cc3s2)C1 [Compound 2 TFA salt, (R)-N-(4,6-difluorobenzo[d]thiazol-2-yl)-1-(2-(dimethylamino)ethyl) piperidine-3-carboxamide]",–
–,1320 nM,120 nM,–,73.1%,–,"CN(C)CCN1CCC[C@@H](C(=O)Nc2nc3c(F)cc(F)cc3s2)C1 [Compound 2 acetate salt, (R)-N-(4,6-difluoro-1,3-benzothiazol-2-yl)-1-[2-(dimethylamino)ethyl]piperidine-3-carboxamide]",–
